Test results from patent US6495118B1, “Lipophilic metal complexes for necrosis and infarction imaging” (Schering Aktiengesellschaft, priority 1997, dated 2002).

Key:
[1] = test system: rats with induced renal infarctions (necrotic area of the kidney); test: MRI experiments on animals with induced renal infarctions; format: in vivo; settings: rat
Description: Plasma protein bond: 10% (Europ. Workshop on Magn. Reson. in Medicine, Santiago de Compostela, Spain, Sep. 28-30, 1994).
The induction of the renal infarctions was carried out on anesthetized (Rompun®/Ketavet®, i.p.) rats (Han. Wistar, Schering SPF, about 200 g of body weight) by occlusion of a (caudal) branch of the left renal artery. The contrast medium was administered (dose: 300 or 500 μmol of Gd/kg of body weight) about 24 hours after the induction of infarction. The animals were studied before and up to 24 hours after contrast medium administration by MR-tomography (SISCO SIS 85, 2 tesla; SE sequence, TR: 400 ms, TE: 15 ms, nt=4, ni=128, FOV: 12-7 cm, SD≈3 mm, 1 layer each axial or coronary).
After the MRI experiments were completed, the anesthetized animals were sacrificed by exsanguination (via the V. cava), and both kidneys were prepared. To verify the infarction (size and position), the left (infarcted) kidney was removed and sliced into disks, and then NBT (“vital”) coloring was carried out.

[2] = test system: plasma protein; settings: cited from earlier work

With CCOc1ccc(CC(CN(CCN(CC(=O)[O-])CC(=O)[O-])CC(=O)[O-])N(CC(=O)[O-])CC(=O)[O-])cc1.[Gd+3].[Na+].[Na+] (centres unmarked) [Eovist] the “MRI appearance of nonperfused portion of the kidneys” value ([1]; 300 or 500 μmol of Gd/kg i.v., immediately after substance administration) was “hypointense area”, the “MRI signal (enhancement) in the necrotic area of the kidneys” value ([1]; 300 or 500 μmol of Gd/kg i.v., late phase (about 4-6 hours p.i.), all animals studied) was “considerable signal increase (enhancement)” and the “MRI signal intensity in the non-perfused area” value ([1]; 300 or 500 μmol of Gd/kg i.v., starting at about 15-30 minutes p.i.) was “increased somewhat”. For the same compound, the “Correlation of MRI delineation of the necrotic area with histological vital (NBT) coloring” value ([1]; infarcted left kidney) was “correlated very well” and the Plasma protein bond [2] was 10%.
